Data published in patent publication EP1862466A2, “Arrays with cleavable linkers” (THE SCRIPPS RESEARCH INSTITUTE, priority 2004, dated 2006).

Assays:
β3GlcNAcT = β3GlcNAcT acceptor specificity (relative enzyme activity); format: biochemical, N. meningitidis; conditions: substance used as acceptor substrate; Galβ(1-4)Glc = 100
From the text: The inventors have previously cloned and characterized the bacterial N. meningitidis enzymes β4GalT-GalE and β3GlcNAcT. Blixt, O.;Brown, J.;Schur, M.;Wakarchuk, W. and Paulson, J. C., J. Org. Chem. 2001, 66, 2442-2448; Blixt, O.;van Die, I.;Norberg, T. and van den Eijnden, D. H., Glycobiol. 1999, 9, 1061-1071. β4GalT-GalE is a fusion protein constructed from β4GalT and the uridine-5'-diphospho-galactose-4'-epimerase (GalE) for in situ conversion of inexpensive UDP-glucose to UDP-galactose providing a cost efficient strategy.
Both enzymes, β4GalT-GalE and β3GlcNAcT, were over expressed in E. coli AD202 in a large-scale fermentor (100 L). Bacteria were cultured in 2YT medium and induced with iso-propyl-thiogalactopyranoside (IPTG) to ultimately produce 8-10 g of bacterial cell paste / L cell media. The enzymes were then released from the cells by a microfluidizer and were solubilized in Tris buffer (25 mM, pH 7.5) containing manganese chloride (10 mM) and Triton X (0.25%) to reach enzymatic activities of about 50 U/L and 115 U/L of cell culture β4GalT-GalE and β3GlcNAcT, respectively.
The structures of these disaccharides are provided below. [drawing 23] [drawing 24] [drawing 25] [drawing 26]
Adding the hydrophobic para-nitrophenyl ring as an aglycon to the reducing end of the acceptors enhanced the activity of the enzyme up to 10 fold (compare 4 with 5 and 6 with 7). The increase in the enzyme activity by adding a hydrophobic aglycon to the acceptor sugar, though to the lesser extent, has also been shown for β4GalT (compare 12 with 13,14). The relaxed substrate specificity of these enzymes makes them very useful for preparative synthesis of various carbohydrate structures, including poly-N-acetyllactosamines. Table 4. Selected β4GalT-GalE and β3GlcNAcT Specificity Data

2G12 antibody [1] = experiment: Carbohydrate microarray analysis, microtiter-based, Scatchard plot (Kd); format: binding, human; conditions: for Kd: oligomannose immobilized as azide derivative on cleavable linker in microtiter plate, fluorescent secondary antibody
Description: Carbohydrate microarray analysis. Ninety-six well NHS-coated microtiter plates (NoAb Biodiscoveries) were treated with 200 µL of a 1 mM methanolic solution of the amino-functionalized disulfide and alkyne containing linker (scheme V) containing 5 % diisopropylethylamine (DIEA) and incubated overnight at 4°C. The microtiter plate was then washed with 2 x 200 µL methanol and 2 x 200 µL water. Next, 200 µL solutions of azido-functionalized oligomannose derivatives 21-25 at varying concentrations from 0 to 500 µM in 5 % DIEA / methanol were introduced. A sprinkle of copper (I) iodide was added and the contents were allowed to react overnight at 4°C. The next day, the contents were removed and the plates were washed with 2 x 200 µL methanol and 2 x 200 µL water. The plates were then blocked with 0.1 % Tween20 solution in HEPES buffer pH 7.5 at 4 °C for 1 hour and then washed with 3 x 200 µL HEPES buffer. Next, 200 µL of a 1 µg/mL solution of 2G12 antibody in 0.1 % Tween20 / PBS buffer was added to the wells for a 1 hour incubation at 4 °C and then washed with 2 x 200 µL PBS buffer. At this point, 200 µL of FITC-tagged goat anti-human IgG antibody (10 µg/mL in PBS, Cal Biochem) was added for 1 hour at 4 °C, and the wells were then washed with 2 x 200 µL PBS buffer. Detection of the FITC-tagged secondary antibody was performed in 200 µL water using a fluorescence plate reader. The resulting data yielded the oligomannose-2G12 binding isotherms and Scatchard plot analysis was implemented in the determination of dissociation constants. Adams et al. (2004) Chem. Biol. 11: 875-81.
Overall, many of the oligomannose derivatives can compete for binding of Man9GlcNAc2, and, therefore, may serve as building blocks for potential immunogens to elicit 2G12-like antibodies. Carbohydrate Microarray Analysis. Previous studies by the inventors using covalent microtiter plates with a panel of carbohydrate epitopes for interaction with 2G12 involved converting the amine-containing oligomannoses 4, 5, 7, 8 and 9 to the corresponding azide derivatives 21, 22, 23, 24 and 25. These derivatives were then covalently attached to a microplate-immobilized cleavable linker via the Cu (I)-catalyzed 1,3-dipolar cycloaddition reaction (FIG. 11B). Kd values for the interaction of 2G12 with oligomannoses 4, 5, 7, 8, 9 (Table 9) were determined using a microtiter-based assay with detection via a fluorescent secondary antibody (see Bryan et al.(2004) J. Am. Chem. Soc. 126, 8640-41). Table 9: The Kd values of oligomannoses 1 and 4, 5, 7, 8, 9 binding to 2G12, as determined by carbohydrate microarray analysis.

2G12 anti-HIV antibody = experiment: 2G12 binding to glycan array printed on glass slide; parameters: species or system human; conditions: for binding of 2G12 antibodies (in words): glycan array, initial experiments; for Rel. spec. (relative binding activity of 2G12): glass-slide glycan array, 2G12 pre-complexed with secondary anti-IgG-FITC
Description: Construction of a glycan array printed on a glass slide: The library of carbohydrate structures was obtained through chemical and chemo-enzymatic synthesis as described above, as well as natural sources. This compound library contained a N-hydroxy succinimide (NHS)-reactive primary amino group, which was printed on a commercial NHS-activated glass surface (Accelr8 Technology Corporation, Denver, CO) using a microarray gene printer (TSRI).
Each glycan type was printed (≈0.5nL/spot) at various concentrations (10-100 µM) and each concentration in a replicate of six. Slides were further incubated with ethanolamine buffer to deactivate remaining NHS functional groups.
The 2G12 antibody was pre-complexed (for 10 min) with secondary human anti-IgG-FITC (2:1, 20µg/mL) prior to application to the glycan array. After incubation with the 2G12 antibodies, the array was washed by dipping the slide in buffer and water.

2G12 antibody [2] = experiment: 2G12 binding study on cleavable linker glycan array in microtiter plates (Kd); parameters: species or system human; conditions: binding to 2G12 antibody
Description: Cleavable Linker Glycan Array in Microtiter Plates: Further experiments were performed using glycans immobilized within microtiter wells with the cleavable triazole linkers described in Example 7 as shown in FIG. 11.
2G12 Binding: After washing with QH2O, wells were blocked with 10 mM HEPES buffer, pH 7.5/150 mM NaCl buffer (200 µL) containing 0.1% Tween-20 over 1 h at 4 °C. The buffer was then removed and 2G12 (17 µg/mL PBS buffer; 200 µL) was incubated in the well over 1 h at 4°C. Wells were then washed with PBS buffer (3×; 200 µL) and fluorescein-conjugated Goat Anti-Human IgG antibody (14 µg/mL PBS buffer; 200 µL) was incubated in the well over 1 h in the dark at 4 °C. Wells were then washed with PBS buffer (3×; 200 µL) and fluorescence was measured with an excitation wavelength of 485 nm and emission wavelength of 535 nm.
Further studies were performed using a cleavable linker array to clarify the types of mannose-containing glycans bound by the 2G12 anti-HIV antibodies. […] The results of a binding study using increasing amounts of labeled Manα1,2Manα1,3Manα1,2 Manα1,6Man glycan with a constant amount of 2G12 antibody are shown in FIG. 16.

## Galβ(1-4)GlcNAc [Acceptor 6, reference compound]
β3GlcNAcT
  Relative enzyme activity (%) β(1-3)GlcNAcT-activity: 7-8%

## OCC1O[C@@H](O)C(O)[C@@H](O)[C@@H]1O[C@@H]1OC(CO)[C@H](O)[C@H](O)C1O (stereo partly shown) [Compound 4]
2G12 antibody [1]
  Kd: 100 nM
β3GlcNAcT
  Relative enzyme activity (%) β(1-3)GlcNAcT-activity: 100%

## Man-9#aa Man9-aminoacid [Glycan 145]
2G12 anti-HIV antibody
  binding of 2G12 antibodies (in words): smaller level of binding

## Manα 1,2Manα1 ,2Manα1 1,3(Manα1,2Man1,3 (Manα1.2Manα1 ,2Manα 1.6) )Man
2G12 antibody [2]
  Kd: 1000 nM

## Man-8#aa Man8-aminoacid [Glycan 144]
2G12 anti-HIV antibody
  binding of 2G12 antibodies (in words): Binding was observed

## NCCCO[C@H]1O[C@H](CO[C@H]2O[C@H](CO)[C@@H](O)[C@H](O)[C@@H]2O[C@H]2O[C@H](CO)[C@@H](O)[C@H](O)[C@@H]2O)[C@@H](O)[C@H](O[C@H]2O[C@H](CO)[C@@H](O)[C@H](O)[C@@H]2O[C@H]2O[C@H](CO)[C@@H](O)[C@H](O)[C@@H]2O)[C@@H]1O [Glycan 136]
2G12 anti-HIV antibody
  Rel. spec. (relative binding activity of 2G12): +++ (+++ >25,000)

## Manα1,2Manα1,2Manα1,3(Manα1,2Man1,2Man1.6)Man
2G12 antibody [2]
  Kd: 700 nM

## O=[N+]([O-])c1ccc(O[C@@H]2OC(CO)[C@@H](O[C@@H]3OC(CO)[C@H](O)[C@H](O)C3O)[C@H](O)C2O)cc1 (stereo partly shown) [Compound 5]
2G12 antibody [1]
  Kd: 100 nM
β3GlcNAcT
  Relative enzyme activity (%) β(1-3)GlcNAcT-activity: 945%

## NCCCO[C@H]1O[C@H](CO)[C@@H](O)[C@H](O[C@H]2O[C@H](CO)[C@@H](O)[C@H](O)[C@@H]2O[C@H]2O[C@H](CO)[C@@H](O)[C@H](O)[C@@H]2O[C@H]2O[C@H](CO)[C@@H](O)[C@H](O)[C@@H]2O)[C@@H]1O [Glycan 135]
2G12 anti-HIV antibody
  Rel. spec. (relative binding activity of 2G12): +++ (+++ >25,000)

## NCCCCCO[C@H]1O[C@H](CO)[C@@H](O)[C@H](O[C@H]2O[C@H](CO)[C@@H](O)[C@H](O)[C@@H]2O[C@H]2O[C@H](CO)[C@@H](O)[C@H](O)[C@@H]2O[C@H]2O[C@H](CO)[C@@H](O)[C@H](O)[C@@H]2O)[C@@H]1O [Oligomannose 4]
2G12 antibody [1]; microtiter plate array
  affinity for 2G12 antibodies (in words): greatest affinity

## Manα1,2Manα1,3Manα1,2 Manα1,6Man
2G12 antibody [2]
  Kd: 100 nM

## OC[C@H]1O[C@@H](O[C@H]2[C@H](O)[C@@H](O)[C@H](O)O[C@@H]2CO)[C@H](O)[C@@H](O)[C@H]1O [Acceptor 4, Galβ(1-4)Glc, reference compound]
β3GlcNAcT
  Relative enzyme activity (%) β(1-3)GlcNAcT-activity: 100%

## CC(=O)N[C@H]1C(O)O[C@H](CO)[C@@H](O[C@@H]2O[C@H](CO)[C@H](O)[C@H](O)[C@H]2O)[C@@H]1O (stereo partly shown) [Compound 6]
β3GlcNAcT
  Relative enzyme activity (%) β(1-3)GlcNAcT-activity: 7%

## NCCCO[C@H]1O[C@H](CO[C@H]2O[C@H](CO)[C@@H](O)[C@H](O)[C@@H]2O[C@H]2O[C@H](CO)[C@@H](O)[C@H](O)[C@@H]2O[C@H]2O[C@H](CO)[C@@H](O)[C@H](O)[C@@H]2O)[C@@H](O)[C@H](O[C@H]2O[C@H](CO)[C@@H](O)[C@H](O)[C@@H]2O)[C@@H]1O [Glycan 138]
2G12 anti-HIV antibody
  Rel. spec. (relative binding activity of 2G12): +++ (+++ >25,000)
